Among the data in ChEMBL document CHEMBL1151241, “Sesquiterpenes and flavonol glycosides from Zingiber aromaticum and their CYP3A4 and CYP2D6 inhibitory activities” (J Nat Prod, 2004) are IC50 values, retold here.

One assay deals with Cytochrome P450 3A4 (Homo sapiens, UniProt P08684). The assay is described as follows: Inhibition of human CYP3A4 by radiometric assay. The class given is ADME.
The target of a further assay is Cytochrome P450 2D6 (Homo sapiens, UniProt P10635). In words: Inhibition of human CYP2D6 by radiometric assay. The class given is ADME.
Chain of Cytochrome P450 2D6 (P10635 whole entry): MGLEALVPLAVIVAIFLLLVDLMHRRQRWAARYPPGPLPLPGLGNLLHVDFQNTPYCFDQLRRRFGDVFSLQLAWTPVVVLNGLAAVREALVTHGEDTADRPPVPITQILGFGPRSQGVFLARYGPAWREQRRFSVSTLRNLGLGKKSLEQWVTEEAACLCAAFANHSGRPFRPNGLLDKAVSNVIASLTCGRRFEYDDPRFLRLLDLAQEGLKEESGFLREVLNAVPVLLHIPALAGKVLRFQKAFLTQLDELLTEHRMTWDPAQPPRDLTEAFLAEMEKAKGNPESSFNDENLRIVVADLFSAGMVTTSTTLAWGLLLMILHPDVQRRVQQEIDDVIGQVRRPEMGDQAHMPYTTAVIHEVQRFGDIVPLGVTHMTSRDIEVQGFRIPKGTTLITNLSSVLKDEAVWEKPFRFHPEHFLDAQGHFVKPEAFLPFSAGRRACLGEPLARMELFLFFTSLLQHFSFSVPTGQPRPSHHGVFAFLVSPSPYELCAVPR

Chain of Cytochrome P450 3A4 (P08684 whole entry): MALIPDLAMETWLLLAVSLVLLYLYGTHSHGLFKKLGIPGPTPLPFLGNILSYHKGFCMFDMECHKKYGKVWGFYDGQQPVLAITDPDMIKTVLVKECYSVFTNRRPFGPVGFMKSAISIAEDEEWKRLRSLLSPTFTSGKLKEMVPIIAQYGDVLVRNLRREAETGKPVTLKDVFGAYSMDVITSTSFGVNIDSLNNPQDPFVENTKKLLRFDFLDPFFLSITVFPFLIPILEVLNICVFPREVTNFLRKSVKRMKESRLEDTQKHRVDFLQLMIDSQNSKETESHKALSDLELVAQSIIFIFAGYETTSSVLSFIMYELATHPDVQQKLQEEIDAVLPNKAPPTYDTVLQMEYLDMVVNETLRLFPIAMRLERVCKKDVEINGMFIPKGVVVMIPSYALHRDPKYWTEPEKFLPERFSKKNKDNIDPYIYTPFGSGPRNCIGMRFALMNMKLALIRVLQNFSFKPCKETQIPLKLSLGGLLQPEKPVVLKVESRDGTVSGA

In the case of `CC(=O)O[C@@H]1[C@@H](OC(C)=O)[C@@H](O)[C@H](Oc2c(-c3ccc(O)cc3)oc3cc(O)cc(O)c3c2=O)O[C@H]1C`, the IC50 against Cytochrome P450 3A4 amounted to 20.6 µM; against Cytochrome P450 2D6 it was 50.5 µM.
Taken in the same sequence, the figures for `CC(=O)O[C@H]1[C@H](Oc2c(-c3ccc(O)cc3)oc3cc(O)cc(O)c3c2=O)O[C@@H](C)[C@H](O)[C@H]1O` were 59 µM and over 100 µM.
Taken in the same sequence, the figures for `C/C1=C\CC(C)(C)/C=C/C(=O)/C(C)=C/[C@H](O)C1` were 35.5 µM and over 100 µM.
The like results for `CC(=O)O[C@@H]1[C@@H](O)[C@H](C)O[C@@H](Oc2c(-c3ccc(O)cc3)oc3cc(O)cc(O)c3c2=O)[C@@H]1OC(C)=O` were, in that order, 55.8 µM and over 100 µM.
Take `CC(=O)O[C@@H]1[C@@H](O)[C@H](C)O[C@@H](Oc2c(-c3ccc(O)cc3)oc3cc(O)cc(O)c3c2=O)[C@@H]1O`: the values for the IC50 on Cytochrome P450 3A4 and against Cytochrome P450 2D6 were 98.3 µM and over 100 µM, respectively.
With `CC(=O)O[C@@H]1[C@@H](O)[C@@H](OC(C)=O)[C@H](Oc2c(-c3ccc(O)cc3)oc3cc(O)cc(O)c3c2=O)O[C@H]1C`, the IC50 at Cytochrome P450 3A4 is 31.6 µM; on Cytochrome P450 2D6, over 100 µM.
The like results for `C/C1=C\[C@H](O)C[C@@]2(C)O[C@@H]2CC(C)(C)/C=C/C1=O` were, in that order, 62.5 µM and over 100 µM.
With `C/C1=C\[C@H](O)C[C@]2(C)O[C@@H]2CC(C)(C)/C=C/C1=O`, the IC50 against Cytochrome P450 3A4 is 42.6 µM; against Cytochrome P450 2D6, over 100 µM.
For `CC(=O)O[C@@H]1[C@@H](OC(C)=O)[C@H](C)O[C@@H](Oc2c(-c3ccc(O)cc3)oc3cc(O)cc(O)c3c2=O)[C@@H]1OC(C)=O`, the values for the IC50 against Cytochrome P450 3A4 and at Cytochrome P450 2D6 were 14.4 µM and 43.3 µM, respectively.
With `COc1ccc(-c2oc3cc(O)cc(O)c3c(=O)c2OC)cc1` [ERMANIN], the IC50 stood at 21.8 µM at Cytochrome P450 3A4 and 45.5 µM against Cytochrome P450 2D6.
With `COc1c(-c2ccc(O)cc2)oc2cc(O)cc(O)c2c1=O` [ISOKAEMPFERIDE], the results for the IC50 at Cytochrome P450 3A4 and on Cytochrome P450 2D6 were 36.2 µM and 4.63 µM, respectively.
Taken in the same sequence, the figures for `CCCCC/C=C/C(=O)CCc1ccc(O)c(OC)c1` [SHOGAOL] were 77.7 µM and over 100 µM.
With `C/C1=C\CC[C@@]2(C)O[C@@H]2CC(C)(C)/C=C/C1=O` [ZERUMBONE EPOXIDE], the IC50 against Cytochrome P450 3A4 is 48.4 µM; against Cytochrome P450 2D6, over 100 µM.
Regarding `C/C1=C\CC(C)(C)/C=C/C(=O)/C(C)=C/CC1` [ZERUMBONE], the figures for the IC50 against Cytochrome P450 3A4 and against Cytochrome P450 2D6 were 21.8 µM and over 100 µM, respectively.
